Consider one compound from patent US20240285553A1, “METHODS TO MODULATE MITOPHAGY WITH SREBP SIGNALING PATHWAY ACTIVATORS” (THE TRUSTEES OF INDIANA UNIVERSITY, priority 2021, published 2024).

One assay concerns ECs. The assay is described as follows: Transmission electron microscopy for mitophagy. The class given is cell-based, human. Conditions: 10 uM propranolol, 10 uM R-propranolol or 0.1 uM JW480 for 12 hours. The protocol: Transmission Electron Microscopy. […] Thin sections from these fixed cell blocks were visualized on Tecnai Spirit (ThermoFisher) TEM Microscope. Images captured were analyzed.
TEM evidence. […] ECs exposed to these drugs were fixed and the images were captured on a TEM.

The test system of a further assay is SREBP1. Nature of the assay: Western blot of SREBP1, SCD and NCEH1 (SREBP1 activation). Type of assay: cell-based, human. To be noted: western blot. An excerpt:
Western blot. Cell lysates were resolved on a SDS PAGE pre-cast gel (Invitrogen) and resolved proteins were transferred on to a PVDF membrane for further detection of proteins using specific antibodies. Antibodies for SREBP1 were purchased from Santa Cruz Biotechnology (Cat #sc-365513) and Novus biological (Cat #NB100-2215). SCD antibody was purchased from Santa Cruz Biotechnology (Cat #sc-58420). Tom20 and LAMP1 antibodies were purchased from Cell Signaling (Cat #42406S and 15665S, respectively). […]

For the next assay, the system named is PAEC / ECs. The assay is described as follows: Immunofluorescence microscopy of Tom20 and lysosomal marker LAMP1 (mitophagy). Type of assay: cell-based, human. To be noted: ECs. The source says: Immunofluorescence Microscopy. Cells were fixed with 4% Formaldehyde (Electron Microscopy Sciences, #C993M24) and permeabilized in the presence of 0.1% Triton X-100 (Sigma). Full-length SREBP1 was stained using mouse monoclonal antibody from Santa Cruz Biotechnology (Cat #sc-365513). Whereas nuclear SREBP1 was detected using antibody from Novus biological (Cat #NB100-2215). […] Tom20 and LAMP1 antibodies were purchased from Cell Signaling (Cat #42406S and 15665S, respectively). Images were captured on an inverted fluorescent microscope (Leica).
(§1) First, degradation of a mitochondrial marker (TOM20) was evaluated as a bio-chemical marker of mitophagy induction.
Fixed cells were stained with Tom20 and Lamp1 and the fluorescence images were captured on a fluorescence microscope.

For assay [1], the system named is pulmonary arterial endothelial cells (PAECs). Nature of the assay: Western blot of mitochondrial marker TOM20 as measure of mitophagy. Type of assay: cell-based, human. Conditions: ECs / PAEC.
Description: Western blot. Cell lysates were resolved on a SDS PAGE pre-cast gel (Invitrogen) and resolved proteins were transferred on to a PVDF membrane for further detection of proteins using specific antibodies. Antibodies for SREBP1 were purchased from Santa Cruz Biotechnology (Cat #sc-365513) and Novus biological (Cat #NB100-2215). SCD antibody was purchased from Santa Cruz Biotechnology (Cat #sc-58420). Tom20 and LAMP1 antibodies were purchased from Cell Signaling (Cat #42406S and 15665S, respectively).
as §1

Assay [2] relates to Sugen/hypoxia-induced PAH in rats. Nature of the assay: Sugen/hypoxia (SuHx) rat model of PAH. The class given is in vivo. The protocol:
FIGS. 10A-10C-R-propranolol attenuates rodent PAH. Sugen (20 mg/kg, IP) injection was administered to rats and then they were exposed to 3 weeks of hypoxia (10% FiO2) and then placed in normoxia (21% FiO2) for 4 weeks to develop severe pulmonary arterial hypertension (FIG. 10A is a schematic of the experimental procedure). Rats were then administered either r-propranolol (5 mg/kg/day, IP) for the last 4 weeks or r-propranolol (10 mg/kg/day, IP) for the last 2 weeks or vehicle for the last 4 weeks. Rats with vehicle exposure developed severe PAH at the end of the protocol as confirmed by right ventricular systolic pressures (RVSP; FIG. 10B) and surrogate measures of RV hypertrophy (RV/(LV+S); FIG. 10C).
FIGS. 15A-15M-R-propranolol attenuates rodent PAH. Sugen (20 mg/kg, IP) injection was administered to rats and then they were exposed to 3 weeks of hypoxia (10% FiO2) and then placed in normoxia (21% FiO2) for 4 weeks to develop severe pulmonary arterial hypertension (FIG. 15A is a schematic of the experimental procedure). Rats receiving Sugen (SuHx) for three weeks of 7 weeks were then administered either r-propranolol (5 mg/kg/day, IP) for the last 4 weeks or r-propranolol (10 mg/kg/day, IP) for the last 2 weeks or vehicle for the last 4 weeks. SuHx treated rats (but not controls) with vehicle exposure developed severe PAH at the end of the protocol as confirmed by right ventricular pressures (RVP; FIG. 15B) and right ventricular systolic pressures (RVSP; FIG. 15C, lane 1: control; lane 2: control+r-propranolol 5 mg; lane 3: SuHx 3 wk; lane 4: SuHx 7 wk; lane 5: SuHx+r-propranolol 5 mg; SuHx+r-propranolol 10 mg) and surrogate measures of RV hypertrophy (FIGS. 15D-15J). […] FIG. 15K show the PA thickness of SuHx treated rats with vehicle exposure vs r-propranolol exposure. FIG. 15L show the RV cross-sectional thickness of SuHx treated rats with vehicle exposure vs r-propranolol exposure.
R-propranolol attenuated rodent PAH. Rats were administered a one-time sugen (20 mg/kg, IP) injection and exposed to 3 weeks of hypoxia (10% FiO2) and then placed in normoxia (21% FiO2) for 4 weeks. […] In the last 4 week normoxic period, rats were administered either r-propranolol (5 mg/kg/day, IP) for the last 4 weeks or r-propranolol (10 mg/kg/day, IP) for the last 2 weeks or vehicle for the last 4 weeks. Rats with vehicle exposure developed severe PAH at the end of the protocol as confirmed by right ventricular systolic pressures (RVSP) and surrogate measures of RV hypertrophy (RV/(LV+S)).

The next assay has as its system HF-PH mice. The assay is described as follows: High-fat diet AKR/J HF-PH mouse model. The class given is in vivo. Conditions: 4 weeks, implanted mini osmotic pump, vs vehicle. The source says: FIG. 14: Using a mouse model fed a high-fat diet, AKR/J mice develop obesity, insulin resistance, heart failure with preserved ejection fraction, and pulmonary hypertension and are designated as “HF-PH mice”.
Using a mouse model fed a high-fat diet (Research Diets, New Brunswick, NJ) for 16-20 weeks, AKR/J mice (Jackson Laboratories, Bar Harbor, ME) develop obesity, insulin resistance, heart failure with preserved ejection fraction, and pulmonary hypertension. (Meng, et al., 2017; Arwood, et al., 2019).

The test system of a further assay is beta-adrenergic receptor. Conditions: cited from earlier work.
Where [3] appears, read: 5 mg/kg/day IP for the last 4 weeks.
The mark [4] stands for this setting: 10 mg/kg/day IP for the last 2 weeks.

Entries after “also recorded” stand apart in the source; their conditions may differ.

In the case of `CC(C)NC[C@@H](O)COc1cccc2ccccc12` [R-propranolol], the “mitophagy by TEM (bilipid membrane formation around mitochondria)” value with ECs was “promoted mitophagy”. Also, in the assay with SREBP1 (ECs / PAEC), the “SCD (SREBP1 target) levels” value is listed as “elevated”; the “SREBP1 levels (non-cleaved; decrease indicates cleavage and activation)” value is “reduce SREBP1 levels”. Further, the NCEH1 levels entry in the assay on SREBP1 (ECs) is listed as “higher”. Moreover, the “mitophagy by immunofluorescence (Tom20/Lamp1)” value with PAEC / ECs is “induce mitophagy; also recorded: Tom20 was mobilized to lysosome”. For the same compound, the “Tom20 levels (mitophagy)” value in assay [1] is on record as “decreased Tom20 levels; also recorded: lower”. Also, in assay [2] (setting [3]), the “RV hypertrophy (RV/(LV+S))” value is reported as “trended toward improvement” and the RVSP result was “trended toward improvement”. In addition, in assay [2] (setting [4]), the “RV hypertrophy (RV/(LV+S))” value is recorded as “attenuated” and the RVSP entry is recorded as “attenuated”. Moreover, the “right ventricular systolic pressure” value with HF-PH mice is listed as “significantly decreased”. In the assay on beta-adrenergic receptor, the “beta-adrenergic receptor affinity, fold less than propranolol” value was 100 fold.
